According to patent US9278963B2, “Pyrimidine hydroxy amide compounds as histone deacetylase inhibitors” (Acetylon Pharmaceuticals, Inc., priority 2013, dated 2016):

How the values were obtained:
[1] = system: SH-SY5Y neuroblastoma cells; assay: Neuroblastoma cell cycle by flow cytometry, SH-SY5Y; format: cell-based; conditions: for percent of the cell population in G2, S, G1 and Sub G1 phase: 72 hours, 0.5, 2 and 5 μM (ATRA 1 μM); for cell cycle stages and fold change of p21: 4 days
Protocol: The following is a quick summary of the neuroblastoma cell cycle experiments. Adherent cells were plated into 12-well plates at 10^6 cells/well and allowed to adhere for 2-4 hours. Compounds were dispensed in DMSO at the indicated concentrations using an automated liquid handling system (Tecan D300) and incubated for the indicated times at 37° C. with 5% CO2. Cells were harvested with enzyme-free cell disassociation solution and washed with buffered saline. Cells were fixed overnight with 100% ethanol. Cell cycle was assessed by flow cytometry using the Molecular Probes FxCycle PI/RNase Staining Solution kit according to manufacture protocols.
The protocol for the cell cycle experiments was as follows. The day before the experiment, the cells were fed in the flask by doubling the media. Then, the cells were harvested by adding non-enzymatic cell dissociation media and incubating at 37° C. for 15 minutes. Next, the cells were transferred to a 50 ml tube and pipet to create a single-cell suspension. The cells were then washed with PBS buffer. Then, the cells were resuspended in complete media at 5×10^5 cells per ml. Next, 2 ml of cells were transferred to 12-well plates. Then, the treatment compounds were dispensed into each well using the D300 liquid handler. The cells were incubated for the indicated time at 37° C. Then, the cells were harvested by adding 500 μl enzyme free cell dissociation solution and incubating at 37° C. for 15 minutes. Next, the cells were spun into a pellet and then washed with PBS. Then, 500 μl 100% EtOH was added and incubated at 4° C. overnight. Then, the cells were washed 3× with PBS. The cells were then resuspended in […] FxCycle PI/RNase solution, and incubated for 2-4 hours at room temperature. Finally, the cells were assayed by flow cytometry.
SH-SY5Y neuroblastoma cells were treated with varying concentrations of either Compound X or Y, and/or ATRA (all trans retinoic acid). […] In addition, the fold change of p21 was also calculated. […] The HDACi/ATRA combination effects were modest, with little difference compared to single agents.

[2] = system: SK-N-BE(2) or SH-SY5Y neuroblastoma cells; assay: Neuroblastoma differentiation index; format: cell-based; conditions: for differentiation index, low-concentration ATRA: 0.25 μM ATRA, alone or with HDAC inhibitor; for differentiation index: varying concentrations, alone
Protocol: SK-N-BE(2) or SH-SY5Y neuroblastoma cells were treated with varying concentrations of either Compound X or Y, and/or ATRA (all trans retinoic acid). The differentiation index was measured.
SK-N-BE(2) or SH-SY5Y neuroblastoma cells were treated with varying concentrations of either Compound X or Y, and/or ATRA (all trans retinoic acid). The differentiation index was measured. As a control, SK-N-BE(2) or SH-SY5Y neuroblastoma cells were treated with varying concentrations of ATRA.

HDAC2 = HDAC2 (Homo sapiens (Human), UniProt Q92769); assay: HDAC enzyme assay, HDAC2; format: biochemical
Protocol: (§1) Compounds for testing were diluted in DMSO to 50 fold the final concentration and a ten point three fold dilution series was made. The compounds were diluted in assay buffer (50 mM HEPES, pH 7.4, 100 mM KCl, 0.001% Tween-20, 0.05% BSA, 20 μM TCEP) to 6 fold their final concentration. The HDAC enzymes (purchased from BPS Biosciences) were diluted to 1.5 fold their final concentration in assay buffer. The tripeptide substrate and trypsin at 0.05 μM final concentration were diluted in assay buffer at 6 fold their final concentration. The final enzyme concentrations used in these assays were 3.3 ng/ml (HDAC1), 0.2 ng/ml (HDAC2), 0.08 ng/ml (HDAC3) and 2 ng/ml (HDAC6). The final substrate concentrations used were 16 μM (HDAC1), 10 μM (HDAC2), 17 μM (HDAC3) and 14 μM (HDAC6).
(§2) Five μl of compounds and 20 μl of enzyme were added to wells of a black, opaque 384 well plate in duplicate. Enzyme and compound were incubated together at room temperature for 10 minutes. Five μ1 of substrate was added to each well, the plate was shaken for 60 seconds and placed into a Victor 2 microtiter plate reader. The development of fluorescence was monitored for 60 min and the linear rate of the reaction was calculated. The IC50 was determined using Graph Pad Prism by a four parameter curve fit.

HDAC6 = HDAC6 (Homo sapiens (Human), UniProt Q9UBN7); assay: HDAC enzyme assay, HDAC6; format: biochemical
Protocol: as §1
as §2, with “fit. The IC50 values obtained for several of the compounds of this invention are found in Table 1.” for “fit.”

HDAC1 = HDAC1 (Homo sapiens (Human), UniProt Q13547); assay: HDAC enzyme assay, HDAC1; format: biochemical
Protocol: as §1, §2

HDAC3 = HDAC3 (Homo sapiens (Human), UniProt O15379); assay: HDAC enzyme assay, HDAC3; format: biochemical
Protocol: as §1, with “The HDAC enzymes (purchased from BPS Biosciences) were diluted to 1.5 fold their final concentration in assay buffer.” left out, “(HDAC6).” for “(HDAC6). The final substrate concentrations used were 16 μM (HDAC1), 10 μM (HDAC2), 17 μM (HDAC3) and 14 μM (HDAC6).”
as §2

[3] = system: human CD34+ bone marrow cells; assay: Cellular viability of cultured CD34+ bone marrow cells; conditions: 1 μM, treatment for 4 days
[4] = system: BE(2)-C neuroblastoma cells; assay: Neuroblastoma maturation gene expression, BE(2)-C; format: cell-based
Protocol: (§3) The following is a quick summary of the HDAC neuroblastoma maturation experiments. Adherent cells were plated into 12- or 24-well plates at 10^6 cells/well and allowed to adhere for 2-4 hours. Compounds were dispensed in DMSO at the indicated concentrations using an automated liquid handling system (Tecan D300) and incubated for the indicated times at 37° C. with 5% CO2. Cells were harvested and RNA extracted using the Qiagen RNeasy Mini Kit according to manufacture protocols. The RNA was quantified and relative expression levels were assessed using the Applied Biosystems TaqMan RNA-to-Ct Kit according to manufacture protocols using the indicated TaqMan probes.
(§4) The protocol for the maturation experiments was as follows. The day before the experiment, the cells were fed in the flask by doubling the media. The cells were then harvested by adding non-enzymatic cell dissociation media and incubating at 37° C. for 15 minutes. The cells were transferred to a 50 ml tube and pipet to create a single-cell suspension. The cells were washed with PBS buffer. The cells were then resuspended in complete media at 5×10^5 cells per ml. Next, 2 ml of cells were transferred to 24- or 12-well plates. The treatment compounds were then dispensed into each well using the D300 liquid handler. The cells were then incubated for the indicated time at 37° C. The cells were harvested by scraping the cells and transferring to a 2 ml tube. The cells were spun to form a pellet. Next, RNA was extracted using the Qiagen RNeasy Mini kit according to manufacture protocols. The RNA concentration was recorded. The relative RNA levels were assessed using the Applied Biosystems TaqMan RNA-to-Ct kit according to manufacture protocols using the indicated Taqman probes.

[5] = system: SH-SY5Y neuroblastoma cells; assay: Neuroblastoma maturation gene expression, SH-SY5Y; format: cell-based; conditions: 72 hours, 1 μM
Protocol: as §3
as §4, with “The treatment compounds were then dispensed into each well using the D300 liquid handler. The cells were then incubated for the indicated time at 37° C. The cells were harvested by scraping the cells and transferring to a 2 ml tube. The cells were spun to form a pellet. Next, RNA was extracted using the Qiagen RNeasy Mini kit according to manufacture protocols.” left out

[6] = system: SK-N-BE(2) neuroblastoma cells; assay: Neuroblastoma cell cycle and p21, SK-N-BE(2); format: cell-based; conditions: 4 days
Protocol: SK-N-BE(2) neuroblastoma cells were treated with varying concentrations of either Compound X or Y, and/or ATRA (all trans retinoic acid). The percentage of the population of the cells at various stages of the cell cycle were measured after 4 days. In addition, the fold change of p21 was also calculated. […] The HDACi/ATRA combination effects were modest, with little difference compared to single agents.

Sequence of HDAC1 (Q13547 whole entry): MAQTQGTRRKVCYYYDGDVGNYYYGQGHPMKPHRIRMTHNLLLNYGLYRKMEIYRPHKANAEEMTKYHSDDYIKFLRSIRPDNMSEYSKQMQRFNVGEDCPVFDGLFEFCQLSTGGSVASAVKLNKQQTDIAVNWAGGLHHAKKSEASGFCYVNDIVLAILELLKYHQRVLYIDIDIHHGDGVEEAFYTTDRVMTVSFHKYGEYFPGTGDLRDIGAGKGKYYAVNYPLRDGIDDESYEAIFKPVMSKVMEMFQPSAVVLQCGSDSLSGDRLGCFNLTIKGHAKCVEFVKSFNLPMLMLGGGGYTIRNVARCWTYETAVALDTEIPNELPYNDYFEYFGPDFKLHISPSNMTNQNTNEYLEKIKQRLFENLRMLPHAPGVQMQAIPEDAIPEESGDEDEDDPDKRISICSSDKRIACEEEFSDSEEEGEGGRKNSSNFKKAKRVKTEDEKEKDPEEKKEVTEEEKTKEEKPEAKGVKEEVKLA
Sequence of HDAC6 (Q9UBN7 whole entry): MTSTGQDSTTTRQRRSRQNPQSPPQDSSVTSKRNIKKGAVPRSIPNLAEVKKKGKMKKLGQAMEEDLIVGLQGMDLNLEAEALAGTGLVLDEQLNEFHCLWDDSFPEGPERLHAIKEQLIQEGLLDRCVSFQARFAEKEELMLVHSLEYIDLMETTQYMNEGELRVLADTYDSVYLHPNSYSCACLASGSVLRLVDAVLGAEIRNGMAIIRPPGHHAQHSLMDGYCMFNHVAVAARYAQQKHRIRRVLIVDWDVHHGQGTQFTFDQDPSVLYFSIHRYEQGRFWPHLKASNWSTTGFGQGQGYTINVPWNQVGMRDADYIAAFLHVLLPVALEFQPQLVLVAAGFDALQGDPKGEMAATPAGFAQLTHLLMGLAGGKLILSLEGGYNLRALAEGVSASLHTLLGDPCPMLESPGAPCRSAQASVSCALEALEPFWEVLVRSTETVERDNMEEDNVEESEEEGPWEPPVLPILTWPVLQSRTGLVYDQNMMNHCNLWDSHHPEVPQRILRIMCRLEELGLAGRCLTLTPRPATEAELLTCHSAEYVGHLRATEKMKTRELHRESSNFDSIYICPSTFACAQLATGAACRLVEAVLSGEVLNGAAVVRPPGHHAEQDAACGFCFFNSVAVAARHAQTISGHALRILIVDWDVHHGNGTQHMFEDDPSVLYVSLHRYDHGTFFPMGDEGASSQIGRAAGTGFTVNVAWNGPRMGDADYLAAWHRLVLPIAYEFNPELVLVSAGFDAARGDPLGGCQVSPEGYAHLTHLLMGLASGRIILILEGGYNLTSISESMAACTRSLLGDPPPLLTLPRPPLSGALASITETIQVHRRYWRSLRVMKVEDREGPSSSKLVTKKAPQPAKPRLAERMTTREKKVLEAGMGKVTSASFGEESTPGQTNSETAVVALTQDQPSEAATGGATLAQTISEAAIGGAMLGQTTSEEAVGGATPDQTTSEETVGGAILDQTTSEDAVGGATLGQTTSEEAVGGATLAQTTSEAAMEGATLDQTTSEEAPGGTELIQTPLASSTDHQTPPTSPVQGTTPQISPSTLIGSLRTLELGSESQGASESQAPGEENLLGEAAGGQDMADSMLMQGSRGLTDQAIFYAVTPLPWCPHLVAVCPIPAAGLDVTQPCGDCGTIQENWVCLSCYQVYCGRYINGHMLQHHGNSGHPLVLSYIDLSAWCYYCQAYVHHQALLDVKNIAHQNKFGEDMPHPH
Sequence of HDAC3 (O15379 whole entry): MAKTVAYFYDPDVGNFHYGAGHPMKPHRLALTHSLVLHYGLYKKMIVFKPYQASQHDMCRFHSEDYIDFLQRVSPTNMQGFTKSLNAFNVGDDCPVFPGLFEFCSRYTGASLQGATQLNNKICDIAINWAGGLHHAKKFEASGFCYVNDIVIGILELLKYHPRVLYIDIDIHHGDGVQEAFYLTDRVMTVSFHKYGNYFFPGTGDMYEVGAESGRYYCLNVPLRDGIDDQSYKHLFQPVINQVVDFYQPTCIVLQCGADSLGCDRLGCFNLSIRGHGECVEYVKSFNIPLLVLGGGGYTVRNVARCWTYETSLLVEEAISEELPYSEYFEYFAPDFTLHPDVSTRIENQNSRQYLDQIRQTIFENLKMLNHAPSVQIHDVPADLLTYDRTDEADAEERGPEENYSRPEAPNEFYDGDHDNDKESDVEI
Sequence of HDAC3 (Q9Y618 395-489 partner): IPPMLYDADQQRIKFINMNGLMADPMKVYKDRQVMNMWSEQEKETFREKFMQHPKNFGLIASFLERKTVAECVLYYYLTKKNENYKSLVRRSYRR
Sequence of HDAC2 (Q92769 whole entry): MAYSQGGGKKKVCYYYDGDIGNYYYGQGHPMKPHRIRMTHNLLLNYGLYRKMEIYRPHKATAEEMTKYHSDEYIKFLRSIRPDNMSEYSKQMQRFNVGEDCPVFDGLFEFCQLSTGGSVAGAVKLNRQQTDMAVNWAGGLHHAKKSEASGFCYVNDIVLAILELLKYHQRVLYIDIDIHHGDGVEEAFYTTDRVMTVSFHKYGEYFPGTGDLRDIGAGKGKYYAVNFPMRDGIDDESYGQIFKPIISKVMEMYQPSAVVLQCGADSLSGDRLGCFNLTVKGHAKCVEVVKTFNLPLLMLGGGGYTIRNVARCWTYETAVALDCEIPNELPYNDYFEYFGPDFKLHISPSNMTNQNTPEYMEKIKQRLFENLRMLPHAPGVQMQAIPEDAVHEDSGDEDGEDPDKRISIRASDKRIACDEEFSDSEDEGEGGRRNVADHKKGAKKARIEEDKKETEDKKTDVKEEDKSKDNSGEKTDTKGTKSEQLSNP

| IC50 (HDAC2) | IC50 (HDAC6) | IC50 (HDAC1) | IC50 (HDAC3) | SMILES | differentiation index, low-concentration ATRA [2] | further results |
| --- | --- | --- | --- | --- | --- | --- |
| – | – | – | – | CC1=C(/C=C/C(C)=C/C=C/C(C)=C/C(=O)O)C(C)(C)CCC1 [ATRA, all trans retinoic acid, reference compound] | sub-optimal | percent of the cell population in G2, S, G1 and Sub G1 phase [1]: little impact on cell cycle |
| 829 nM | 4.6 nM | 844 nM | 3540 nM | O=C(NO)c1cnc(NC2(c3ccccc3)CCN(S(=O)(=O)c3ccccc3)CC2)nc1 [Compound 023, N-hydroxy-2-((4-phenyl-1-(phenylsulfonyl)piperidin-4-yl)amino)pyrimidine-5-carboxamide] | – | – |
| 22 nM | 3.7 nM | 22 nM | 761 nM | O=C(NO)c1cnc(NC2(c3ccccc3)CCN(C(=O)Nc3c(F)cccc3F)CC2)nc1 [Compound 024, 2-((1-((2,6-difluorophenyl)carbamoyl)-4-phenylpiperidin-4-yl)amino)-N-hydroxypyrimidine-5-carboxamide] | – | – |
| 103 nM | 12 nM | 130 nM | 422 nM | C[C@@H](C(=O)N1CCC(C)(Nc2ncc(C(=O)NO)cn2)CC1)c1ccccc1 [Compound 027, (R)—N-hydroxy-2-((4-methyl-1-(2-phenylpropanoyl)piperidin-4-yl)amino)pyrimidine-5-carboxamide] | – | – |
| 2 nM | 2.8 nM | 3 nM | 24 nM | O=C(NO)c1cnc(NC2(c3ccccc3)CCN(C(=O)Cc3c[nH]c4ccccc34)CC2)nc1 [Compound 028, 2-((1-(2-(1H-indol-3-yl)acetyl)-4-phenylpiperidin-4-yl)amino)-N-hydroxypyrimidine-5-carboxamide] | – | – |
| 9 nM | 5 nM | 10 nM | 42 nM | O=C(NO)c1cnc(NC2(c3ccccc3)CCN(C(=O)Cc3cc4ccccc4[nH]3)CC2)nc1 [Compound 031, 2-((1-(2-(1H-indol-2-yl)acetyl)-4-phenylpiperidin-4-yl)amino)-N-hydroxypyrimidine-5-carboxamide] | – | – |
| – | – | – | – | O=C(CCCCCCNC(=O)c1cnc(N(c2ccccc2)c2ccccc2)nc1)NO [Compound A, 2-(diphenylamino)-N-(7-(hydroxyamino)-7-oxoheptyl) pyrimidine-5-carboxamide, reference compound] | – | decrease in cells viability [3]: 20 fold |
| 36 nM | – | 6 nM | 445 nM | Nc1ccc(-c2cccs2)cc1NC(=O)c1ccc2c(c1)cc(C1CC1)n2CCN1CCOCC1 [Compound X, N-(2-amino-5-(thiophen-2-yl)phenyl)-2-cyclopropyl-1-(2-morpholinoethyl)-1H-indole-5-carboxamide] | potentiated 0.25 μM ATRA | fold change of genes associated with maturation ([4]; 72 hours, 1 μM): alters genes associated with maturation; fold change of genes associated with maturation ([4]; 4 days, 0.5, 1 and 3 μM): alters genes associated with maturation; fold change of genes associated with maturation [5]: alters genes associated with maturation; percent of the cell population in G2, S, G1 and Sub G1 phase [1]: induced similar cell cycle changes in all treatment groups; cell cycle stages and fold change of p21 [1]: induced cell cycle arrest; differentiation index [2]: induced an increase in the differentiation index; cell cycle stages and fold change of p21 [6]: induced cell cycle arrest |
| – | – | – | – | O=C(CCCCCCNC(=O)c1cnc(N(c2ccccc2)c2ccccc2Cl)nc1)NO [Compound Y, 2-((2-chlorophenyl)(phenyl)amino)-N-(7-(hydroxyamino)-7-oxoheptyl)pyrimidine-5-carboxamide] | potentiated 0.25 μM ATRA | cell cycle stages and fold change of p21 [1]: induced cell cycle arrest; differentiation index [2]: induced an increase in the differentiation index; cell cycle stages and fold change of p21 [6]: induced cell cycle arrest |
